From a melting point compilation (Tetko et al.; mined from patent text by program, amines drawn as free bases though some values may be those of a salt)

melting point | SMILES
166 to 168 °C | COc1cc(C)c(C(C)O)cc1NC(=S)N1CCN(c2cc(Cl)cc(Cl)c2)CC1 (stereo not drawn)
115 to 117 °C | Cc1ccc2[nH]c3c(c2c1)C(C(=O)OCc1ccccc1)CCC3 (stereo not drawn)
192 to 194 °C | CC[C@H](C)[C@H](NC(=O)[C@H](C)N(C(C)=O)C1CCCCC1)C(=O)N[C@@H](Cc1ccc2ccccc2c1)[C@@H](O)[C@@H](O)CC(C)C
96 to 97 °C | CCOC(=O)CN1c2ccccc2Oc2ccccc21
97 to 125 °C | CN(C)Cc1cc(NC(=O)OC(C)(C)C)c(N)cc1-c1ccc(F)cc1
138 to 140 °C | Cc1cn(C)c2c(OCc3ccccc3)cc3c(c12)[C@H](CO)CN3C(=O)OC(C)(C)C
192 to 194 °C | CC(C)(C)CC(=O)Nc1ccc([N+](=O)[O-])cc1
129 to 130 °C | CCCOC(=O)C(Cc1ccccc1)(Cn1cncn1)c1ccccc1OC (stereo not drawn)
111 to 123 °C | CCCCCCC(C(=O)OCC)S(=O)(=O)c1ccc(C)cc1 (stereo not drawn)
229 to 230 °C | O=C(CNc1ccccc1)Nc1cc(Cl)ccc1C(=O)O
82 to 83 °C | COc1cc(CC(=O)NCCOCc2ccc(C)c(C)c2)ccc1O
203 to 205 °C | FC(F)(F)c1ccc(/C=C/C2=CCN(Cc3c[nH]c4ncccc34)CC2)cc1
171 to 176 °C | Cn1ccnc1CCNS(=O)(=O)c1ccccc1NS(=O)(=O)c1cccc(C(F)(F)F)c1
105 to 106 °C | CCON=C(C)c1ccc2c(c1)ncn2-c1cccc(-c2cccnc2)c1
198 to 199 °C | Cc1ccc(C2=NC(O)(C(F)(F)F)CN2c2ccc(S(C)(=O)=O)cc2)cc1 (stereo not drawn)
144 to 146 °C | Cc1ccc(CC2CNC(=O)O2)cc1 (stereo not drawn)
88 to 98 °C | O=C(O)c1ccc(OCCNC(=O)C2Cc3ccccc3N2S(=O)(=O)c2ccc(-c3ccc(F)cc3Cl)cc2)nc1 (stereo not drawn)
75 to 77 °C | Fc1ccc(Nc2ccccc2C=C(Br)Br)cc1
228 to 230 °C | COc1cccc(CNC(=O)c2nc3scc(COc4ccc(CC(=O)O)cc4)c3c(=O)[nH]2)c1
134 to 136 °C | N#CC(C(=O)c1ccc(Cl)cc1)=C1CCC(C(=O)O)N1 (stereo not drawn)
128 to 129 °C | CCNC(=O)c1ccc(C#CCc2ccc3c(c2)C(C)(C)CCC3(C)C)cc1
164 °C | CCOC(=O)C(=O)Nc1ccc(C#N)c2ccccc12
94 to 96.5 °C | N#Cc1ccccc1N1CCc2ccccc21
179 °C | COC(=O)c1c(C(=O)OC)c(-c2ccc(OC)c(OC)c2)c2c(O)c(OC)c(OC)cc2c1O
191 °C | c1ccc2c(c1)CCn1cnnc1C2

melting point | SMILES
256 to 258 °C | COc1ccc2c(Cc3c(Cl)cncc3Cl)nn(CC(=O)NO)c(=O)c2c1
> 330 °C | Cc1ccc2[nH]c3c(c2c1)CC(=O)Nc1cccnc1-3
90 °C | CN1CC(CN)Oc2c(-c3ccccc3C(F)(F)F)cccc21 (stereo not drawn)
215 to 217 °C | Cc1ccc(NC(=O)c2nc[nH]c2C)cc1Cl
> 250 °C | NCC1Cc2cccc(Nc3cc(Cl)cc(Cl)c3)c2O1 (stereo not drawn)
58 to 65 °C | O=C1NC(=O)C(Cc2ccc(SCCc3ccccc3)cc2)S1 (stereo not drawn)
245 to 247 °C | COC(=O)c1ccc(-c2cn(Cc3cccnc3)c3c2CCc2nc4c(nc2-3)C(C)(C)CCC4(C)C)cc1
156 to 157 °C | CC(C)(C)OC(=O)C(C#N)C(c1cccc2ccccc12)c1cccc2ccccc12 (stereo not drawn)
60 to 62 °C | O=C(O)CCCC(=O)NCCCCCC1CCSS1 (stereo not drawn)
43 to 47 °C | Cc1ccc(C(O)CCCO)cc1 (stereo not drawn)
174 to 177 °C | CCc1cn(C2CC(OCc3ccccc3)C(CNC(=O)Cc3c(Cl)cccc3Cl)O2)c(=O)[nH]c1=O (stereo not drawn)
76 to 78 °C | CCC(=O)CCCCCCCc1ccc(O)c(O)c1
156 °C | COc1cc(Nc2nccc(-c3ccc4ccccc4c3)n2)cc(OC)c1OC
230 °C | COC(=O)c1cc(C(=O)c2nc(Br)c3ccccn23)ccc1N
105 to 120 °C | COc1ccccc1-c1nc(C)c(-c2cccnc2)n1O
126 to 127 °C | Clc1nccc(-c2ccc(Cl)c(Cl)c2)n1
125 to 127 °C | COc1ccnc(CSc2nc3cscc3n2CO)c1
105 °C | Cc1nn(C)c2nc3ccccc3c(NCc3ccccc3)c12
185 °C | O=C1c2cccc(NC(=S)Nc3cc[nH]n3)c2C2CC3(CCN12)SCCS3 (stereo not drawn)
132 to 133 °C | COc1c(Cl)ccc(-c2nc(C(=O)OCc3ccccc3)c(Cl)c(N)c2F)c1F
285 to 287 °C | COc1cc(Cc2cnc(N)nc2N)cc2cccnc12
191 to 193 °C | CCOC(=O)c1ncc2[nH]c3ccc(C4CCCCC4)cc3c2c1C
225 to 229 °C | CC(C(=O)O)c1ccc2oc(N)nc2c1 (stereo not drawn)
147 °C | N#Cc1ccc(S(=O)(=O)N2CCCC2c2ccc(F)cc2)cc1 (racemic)
37 to 39 °C | O=NSC1(C2OCCO2)CCCCC1

melting point | SMILES
98 to 99 °C | Cc1ccc(S(=O)(=O)OCc2c([N+](=O)[O-])cccc2[N+](=O)[O-])cc1
130 to 131 °C | Nc1cc(C=O)nc(Cc2ccc(F)cc2)c1F
122 to 141 °C | COc1ccc(-c2sc(C=NO)c(-c3cccc(OC)c3)c2C)cc1
255 to 265 °C | Oc1cc(O)c(-c2nc(-c3ccccc3)nc(-c3ccccc3)n2)cc1Cl
120 to 121 °C | CCCNCc1cnc2c(C)c(NC(=O)c3ccc(OC[C@@H]4CCCO4)cc3F)ccc2c1
140 to 142 °C | COC(=O)CCC(=O)c1ccc(-c2ccc(C(F)(F)F)cc2)cc1
220 °C | CCOC(=O)c1cn2c(cc(-c3cccc(Cl)c3)c3cc(C(c4ccc(Cl)cc4)c4nncn4C)ccc32)n1 (stereo not drawn)
211 to 214 °C | Cc1cc([N+](=O)[O-])c(CC2NC(=O)NC2=O)cc1Cl (stereo not drawn)
62 °C | CC(C)(O)C#Cc1ccc(Br)cc1
208 to 210 °C | COc1cc2c(cc1-c1cccnc1)-c1c(C3=CCOCC3)c3c(n1CC2)C(=O)N(C(C)(C)C)CCCC3
130 to 132 °C | CC(C)c1cc(C(O)(C(F)(F)F)C(F)(F)F)cc(C(C)C)c1NCC(=O)O
131 to 132 °C | CC(C)(C)OC(=O)N1CCC2(CC1)SCc1ccccc12
43 to 45 °C | COc1ccnc(-c2cccs2)c1
152 to 154 °C | C#CCn1c(-c2ccccc2)nc(CC)c(O)c1=O
78 to 82 °C | CCCCN1CCSC1c1nsc2ccc(-n3c(=O)cc(C(F)(F)F)n(C)c3=O)cc12 (stereo not drawn)
293 °C | O=C(CCc1ccccc1)Nc1cccc(C(=O)NN=C2C(=O)Nc3ccc(I)cc32)c1
121 to 122 °C | CC(C)Oc1nccc(-c2c(-c3ccc(F)cc3)ncn2C2CCNCC2)n1
158 to 159 °C | O=C(Nc1cccc2ccccc12)OCc1ccc(CO)cc1
201 to 204 °C | CN1C(=O)CCC2CC(C3=NNC(=O)CC3CO)=CC=C21 (stereo not drawn)
49.5 to 50.5 °C | Cn1nc(OCc2ccccc2)cc1C=O
240 to 243 °C | Cc1cc(=O)[nH]c(=S)n1C1CCCCC1
205 to 207 °C | COc1ccc(C=CC(=O)C2C(=O)C=C(C)OC2=O)cc1 (stereo not drawn)
68 to 69 °C | C#CCCc1cc2ccc(C(=O)OC)cc2o1
121 to 123 °C | COc1cc(C(=O)N(C(C)C)C2CCCCC2)ccc1Cn1c(-c2ccccc2Cl)nc2cccnc21
202 to 203 °C | O=C(Nc1ccc(F)c(NS(=O)(=O)c2cccs2)c1)c1ccc(F)c(F)c1

melting point | SMILES
132 to 137 °C | CS(=O)(=O)CC(=O)c1ccc(Cl)cc1
230 to 231 °C | Cc1nc2c(N)nc3ccccc3c2n1CCCNC(=O)c1ccccc1
153 to 155 °C | CSC(C(N)=O)c1cccc(C(=O)c2ccccc2)c1N (stereo not drawn)
76 to 78 °C | Cc1nc(CNC(=O)c2ccnc(N3CCN(Cc4ccc(F)cc4)C3=O)c2)cs1
76.6 to 77.4 °C | CC1(C)CC(C)(O)C2C3CCCCC3C2(C)C1 (stereo not drawn)
104 to 106 °C | CCC(=O)Oc1ccc(C(=O)CC)cc1F
131 to 132 °C | Cn1ncc2c1CC(C)(C)C(C=O)C2=O (stereo not drawn)
89 to 91 °C | BrCCCCOc1ccc(OCCCCBr)cc1
67 to 70 °C | COC(=O)c1cccc([N+](=O)[O-])c1CBr
309 to 311 °C | CC(C)(C)c1ccc(-c2nc(NC(=O)C3CCCC3)sc2-c2ccncc2)cc1
151 to 152 °C | COC(=O)CCn1c(=O)n(CCN2CCN(c3ccccc3OC)CC2)c(=O)c2sccc21
> 300 °C | O=c1[nH]c2cc(C(F)(F)F)c(N3CCOCC3)cc2n2c(=O)[nH]nc12
238 °C | Cc1nc(N)nc(N)c1-c1ccc(F)cc1Cl
213 °C | CN1CCN(N=C2CC(c3ccc(C(F)(F)F)cc3)Cc3c2c(=O)c2cc(Cl)ccc2n3O)CC1 (stereo not drawn)
81 to 84 °C | O=C(O)Cc1ccc(OCCNC(=O)C2Cc3ccccc3N2S(=O)(=O)c2ccc(-c3cc(C(F)(F)F)ccc3F)cc2)cc1 (stereo not drawn)
273 to 275 °C | O=C1CCC(n2cnc3ccc(Br)cc3c2=O)C(=O)N1 (stereo not drawn)
155 to 157 °C | CC(C)CNC(=O)c1sc(Oc2ccc3c(c2)OCO3)c2c1CCc1cnn(C)c1-2
153 to 154 °C | CCC1C(=O)c2cc(OC)c(Cl)c(Cl)c2C1=O (stereo not drawn)
164 to 165 °C | COc1ccc(Cc2cc(Oc3c(C)cc(C=C4N=C(C)OC4=O)cc3C)ccc2OC)cn1
145 to 147 °C | C#CCN1C(=O)CCC1C(N)=O (stereo not drawn)
214 to 216 °C | CC(=O)N(C)c1cc2c(nc(C)n2C)c2c1CCC(c1ccccc1)O2 (stereo not drawn)
124 to 125 °C | COc1ccccc1C1=NN(C(=O)c2cccnc2)CC1C (stereo not drawn)
129 to 130 °C | CC(=O)c1ccc(NS(=O)(=O)N(C)C)cc1

SMILES | melting point
CC(C)(C)OC(=O)C(=O)C=[N+]=[N-] | 100 °C
CN1C(=O)C(NC(=O)Nc2cccc3ccccc23)N=C(c2ccccc2)c2ccccc21 (stereo not drawn) | 234 to 235 °C
COc1ccc2c3cc(C(=O)NCCc4ccc(Cl)cc4)ccc3n(CC3CCCCC3)c2c1 | 179 to 181 °C
COC(=O)C1=C(C(=O)OC)C2(c3ccc(Cl)cc3)C=CC1O2 (stereo not drawn) | 84 °C
O=Cc1c(N2CCNCC2)n(Cc2ccccc2)c2ccccc12 | 163 to 165 °C
